Experimental data: PMC3670040, “Structure of Lipid Kinase p110β/p85β Elucidates an Unusual SH2-Domain-Mediated Inhibitory Mechanism” (Molecular Cell, 2011)
Square brackets hold non-standard residues; d marks the D form. Ends that are not written are not given here. pY = N[C@@H](Cc1ccc(OP(=O)(O)O)cc1)C(=O)O

Test system: p110β/p85β-nicSH2
Experiment: [γ32P]-ATP nitrocellulose-binding assay of PIP3 production
Type: biochemical, mouse
Method: or absence of 10 μM PDGF bis-phosphopeptide. Reactions were carried out with 1 μCi [γ32P]-ATP per reaction, with 100 μM ATP and 1 mg/ml total “brain lipids” or 1.5 mM diC8-PIP2/POPS vesicles for 60 min. The vesicle compositions are indicated.
(B) Integrated intensities of the spots using the “brain liposomes” (left panel) or diC8-PIP2/POPS liposomes (Invitrogen) (right panel), quantitated with the ImageQuant software.
The bars represent standard deviations of the mean for two measurements. The hatched bars are for reactions in the presence of PDGF bis-phosphopeptide.
(C) SDS PAGE analysis of the proteins used for the assays in (A and B). Samples of 10 μl of […] protein solutions for each of the reaction were analyzed on a 4-12% NuPAGE Novex Bis-Tris gel in MES running buffer (Invitrogen). The upper band is the p110 subunit and the lower band is the regulatory subunit.
(D) Stereo view of the contacts between the p85β-cSH2 domain and the C-lobe of the kinase domain. The Tyr677-p85β (red) inserts into a hydrophobic groove between the two elbows kα7/kα8 (yellow) and kα11/kα12 (orange). Tyr677-p85β also makes a potential hydrogen bond with Ser1046-p110β (dashed black line).
To determine the effect of receptor tyrosine kinases (RTK) on PI3K activity, the assays were performed in absence or presence of 10 μM pY peptides:
7. Mm-PDGFR (pY2): ESDGG(pY)MDMSKDESID(pY)VPMLDMKGDIKYADIE (residues
10. Hs-PDGFR-pY740+5 position 5 mutated to P: DGG(pY)MDMSP
11. Hs-PDGFR-pY740+5 position 5 mutated to A: DGG(pY)MDMSA
12. Hs-PDGFR-pY740+5 position 5 mutated to S: DGG(pY)MDMSS
13. […]
The reactions were stopped by addition of 10 μl of stop/detection buffer (1X Stop & Detect Buffer B, 4 nM ADP Alexa633 Tracer, 109 μg/ml ADP2 antibody), followed by 1 h equilibration. Fluorescence polarization was measured on a PHERAStar plus HTS microplate reader (BMG Labtech), using a fluorescence polarization module with excitation centered at 633 nm and emission at 650 nm. […]
The PIP3 lipids produced in PI3K in vitro assays as described above were also measured by a mass-spectrometry based assay (Clark et al.). […]

- fold activation by pY2, PIP3 formation, brain lipids (p110β/p85β-nicSH2, 10 μM pY2, 1 mg/ml brain lipids (5% PIP2, 20% PS, 15% PC, 45% PE, 5% sphingomyelin, 10% cholesterol), 100 μM ATP, 60 min): 10 fold
- fold activation by pY2, PIP3 formation, diC8-PIP2/POPS liposomes (p110β/p85β-nicSH2, 10 μM pY2, 1.5 mM diC8-PIP2/POPS, 100 μM ATP, 60 min): 16 fold
- effect on lipid kinase activity of p110β SH2-containing complexes, PIP3 formation (radioactive phosphorylation assay, Figures S2A–S2C): stimulates lipid kinase activity
Substance: ESDGG[pY]MDMSKDESID[pY]VPMLDMKGDIKYADIE [pY2, bis-phosphopeptide (PDGFR 735–767, with pY740 and pY751)]
